Structures are written as SMILES. Converted amounts (≈) assume the structure as drawn.

Holding throughout (assay): MIC by resazurin micro-titre method
Holding throughout (format): cell-based
For orientation: Resazurin is reduced to fluorescent resorufin, in cell work by metabolically active cells.

The test system of experiment [1] is Salmonella typhimurium (P3). The following applies: Salmonella enterica, 37° C., 18-24 h.
The subject of another experiment is Klebsiella oxytoca (P4). The following applies: 37° C., 18-24 h.
A further experiment relates to Vibrio cholera (P5). The note with it: Vibrio cholerae, read-out: MIC value.
The subject of a further experiment is Helicobacter pylori (P6). The note with it: read-out: MIC value.
In experiment [2] the test system is Shigella dysenteriae (P7). The note with it: read-out: MIC value.
Experiment [3] concerns Streptococcus thermophilus (BB2). The note with it: beneficial, 37° C., 18-24 h.
In experiment [4] the test system is Bacteroides fragilis (BB3). The note with it: beneficial, 37° C., 18-24 h.
For experiment [5], the system named is Faecalibacterium prausnitzii (BB5). The note with it: beneficial, 37° C., 18-24 h.

On to `O=C(O)c1cn(C2CC2)c2cc(N3CCNCC3)c(F)cc2c1=O` [Ciprofloxacin, ciprofloxacin], for which the minimal inhibitory concentration (MIC) – broadly, the lowest concentration that inhibits growth of the organism – in experiment [1] came out at 1000 µg/mL (≈ 3020 µM); in the experiment with Klebsiella oxytoca (P4), 500 µg/mL (≈ 1510 µM); in the experiment on Vibrio cholera (P5), 125 µg/mL (≈ 377 µM); in the experiment on Helicobacter pylori (P6), 15.1 µg/mL (≈ 45.6 µM); in experiment [2] it was 15.1 µg/mL (≈ 45.6 µM); in experiment [3], 31.2 µg/mL (≈ 94.3 µM). Moreover, the MIC in experiment [4] was 62.5 µg/mL (≈ 189 µM); in experiment [5], 31.2 µg/mL (≈ 94.3 µM).

For the origin of these results see patent publication US20200108115A1, “MEDICINAL COMPOSITION DERIVED FROM MULTIPLE PLANT SOURCES FOR GASTROINTESTINAL DISORDER” (priority 2017, published 2020).
